Type: physicochemical
From the text: The slurry should be thoroughly agitated during preparation with a suitable device (like an electric lab stirrer). The desired temperature for heating the slurry will vary depending on the solubility of the active agent and the temperature that the active agent begins to degrade.

For Cl.N[C@H]1C(O)O[C@H](CO)[C@@H](O)[C@@H]1O (stereo partly shown) [Glucosamine HCl], the “temperature dependent solubility in water” value was “greater than 60 °C”.

Source: US20080268036A1, “Co-processing of active pharmaceutical/nutraceutical ingredients” (JRS Pharma, priority 2007, published 2008)
